The nature of series [1]: Clearance in rat at 0.5 mg/kg, iv. The series is classed as ADME, organism-based. More on the design: dose 0.5 mg/kg, route intravenous. Particulars: in vivo.
Series [2] has as its target T1, Free fatty acid receptor 1 (Homo sapiens, UniProt O14842). As to the kind of experiment: Agonist activity at human GPR40 expressed in mouse A9 cells by inositol phosphate accumulation assay. The series is classed as functional, cell-based.
The nature of series [3]: Mean residence time in rat. The series is classed as ADME, organism-based. Particulars: in vivo.
Series [4] deals with T1, Free fatty acid receptor 1. As to the kind of experiment: Agonist activity at human GPR40 expressed in CHO cells by aequorin assay. The class given is cell-based.
Series [5] can be described thus: Oral bioavailability in rat at 2 mg/kg. The class given is ADME, organism-based. Particulars: in vivo.
A short description of series [6]: Volume of distribution at steady state in rat. The class given is ADME, organism-based. To be noted: in vivo, read-out: Vdss.
The nature of series [7]: Plasma concentration in mouse at 1 mg/kg, po measured for 4 hrs. The class given is ADME, organism-based. The arrangement: dose 1 mg/kg, route oral.
Series [8] can be described thus: Induction of CYP450 (unknown origin). The series is classed as ADME. To be noted: human.
The nature of series [9]: Volume of distribution at steady state in cynomolgus monkey. The series is classed as ADME, organism-based, Macaca fascicularis. Particulars: in vivo, read-out: Vdss.
Series [10] can be described thus: Half life in dog. The class given is ADME, organism-based, Canis lupus familiaris. To be noted: in vivo.
The next series concerns Islets of langerhans. The series can be described thus: Induction of insulin secretion in human GPR40 knock-in mouse pancreatic islets.
Series [11] has as its target Voltage-gated inwardly rectifying potassium channel KCNH2 (Homo sapiens, UniProt Q12809). As to the kind of experiment: Inhibition of human ERG.
Series [12] in a line: Oral bioavailability in cynomolgus monkey at 2 mg/kg. The class given is ADME, organism-based, Macaca fascicularis. Particulars: in vivo.
A short description of series [13]: Inhibition of CYP450 (unknown origin). To be noted: human. The class given is ADME.
Series [14] relates to Mus musculus. As to the kind of experiment: Antidiabetic activity in human GPR40 knock-in mouse assessed as reduction in blood glucose level at 10 mg/kg, po administered via gavage 1 hr before glucose challenge by oral glucose tolerance test. More on the design: dose 10 mg/kg. The class given is functional, organism-based.
The next series concerns Plasma. The series can be described thus: […] in mouse plasma at 1 mg/kg, po. The class given is ADME, organism-based. More on the design: dose 1 mg/kg, route oral. To be noted: in vivo.
Series [15] is described as follows: Ratio of drug level in brain to plasma in rat at 5 mg/kg, po after 3 hrs. The series is classed as ADME, organism-based. The arrangement: dose 5 mg/kg, route oral. To be noted: brain and plasma, read-out: BPR.
Series [16] is described as follows: Half life in cynomolgus monkey. Particulars: in vivo. The class given is ADME, organism-based, Macaca fascicularis.
Series [17] can be described thus: Volume of distribution at steady state in dog. The class given is ADME, organism-based, Canis lupus familiaris. Particulars: in vivo, read-out: Vdss.
Series [18] is described as follows: Oral bioavailability in dog at 2 mg/kg. The class given is ADME, organism-based, Canis lupus familiaris. To be noted: in vivo.
Series [19] can be described thus: Half life in rat. The class given is ADME, organism-based. To be noted: in vivo.
Series [20] concerns Mus musculus. The series can be described thus: Antidiabetic activity in human GPR40 knock-in mouse assessed as reduction in glucose AUC at 10 mg/kg, po administered via gavage 1 hr before glucose challenge by oral glucose tolerance test. The class given is functional.

Activity calls are given as the source filed them. No cut-off for these calls is given here.

T1 sequence (O14842 whole entry): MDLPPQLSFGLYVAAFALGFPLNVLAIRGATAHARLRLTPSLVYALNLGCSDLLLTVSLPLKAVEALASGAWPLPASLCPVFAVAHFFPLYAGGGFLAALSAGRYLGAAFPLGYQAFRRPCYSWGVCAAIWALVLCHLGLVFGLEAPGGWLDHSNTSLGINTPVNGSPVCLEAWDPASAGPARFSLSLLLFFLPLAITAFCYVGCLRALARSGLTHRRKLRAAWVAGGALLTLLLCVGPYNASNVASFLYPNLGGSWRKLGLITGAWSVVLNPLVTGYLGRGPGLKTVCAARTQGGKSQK
Voltage-gated inwardly rectifying potassium channel KCNH2, sequence (Q12809 whole entry): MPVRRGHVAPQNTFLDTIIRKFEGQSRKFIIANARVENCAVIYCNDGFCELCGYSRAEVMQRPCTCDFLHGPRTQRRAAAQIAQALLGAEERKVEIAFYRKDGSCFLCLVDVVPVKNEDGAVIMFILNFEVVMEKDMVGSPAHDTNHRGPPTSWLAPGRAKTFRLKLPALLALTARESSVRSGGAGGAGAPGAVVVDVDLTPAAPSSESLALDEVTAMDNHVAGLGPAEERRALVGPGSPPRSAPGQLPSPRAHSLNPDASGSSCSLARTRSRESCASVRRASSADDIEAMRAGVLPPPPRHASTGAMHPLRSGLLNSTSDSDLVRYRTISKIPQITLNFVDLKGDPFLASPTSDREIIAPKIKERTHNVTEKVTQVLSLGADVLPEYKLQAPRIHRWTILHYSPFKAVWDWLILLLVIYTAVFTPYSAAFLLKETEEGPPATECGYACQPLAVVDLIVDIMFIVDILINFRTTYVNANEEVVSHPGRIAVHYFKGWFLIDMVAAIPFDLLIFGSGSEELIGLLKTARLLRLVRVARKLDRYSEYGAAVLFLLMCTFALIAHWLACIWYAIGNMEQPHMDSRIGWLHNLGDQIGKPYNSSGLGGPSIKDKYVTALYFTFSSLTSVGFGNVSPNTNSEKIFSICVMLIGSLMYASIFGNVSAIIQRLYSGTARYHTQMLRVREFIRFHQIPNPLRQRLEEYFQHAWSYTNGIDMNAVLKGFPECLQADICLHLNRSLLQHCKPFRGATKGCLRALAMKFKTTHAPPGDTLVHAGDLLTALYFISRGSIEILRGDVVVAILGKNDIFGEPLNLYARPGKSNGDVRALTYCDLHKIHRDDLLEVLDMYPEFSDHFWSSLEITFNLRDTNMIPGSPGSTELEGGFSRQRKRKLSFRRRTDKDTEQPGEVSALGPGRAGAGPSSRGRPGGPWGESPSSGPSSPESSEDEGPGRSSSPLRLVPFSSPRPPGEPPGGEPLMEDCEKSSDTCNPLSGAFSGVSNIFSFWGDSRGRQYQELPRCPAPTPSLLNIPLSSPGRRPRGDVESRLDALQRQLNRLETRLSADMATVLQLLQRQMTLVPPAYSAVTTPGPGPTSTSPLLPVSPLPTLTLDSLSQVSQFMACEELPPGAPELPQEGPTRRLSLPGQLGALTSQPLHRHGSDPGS

Regarding `Cc1cc(Cl)ccc1-c1cccc(COc2ccc([C@H](CC(=O)O)c3nccn3C)cc2)c1`, the clearance in [1] is 5.17 mL/min/kg. The concentration giving a half-maximal response (EC50) was determined as 7.6 nM in series [2] and 33 nM in series [4]. Further, the MRT in [3] was determined as 2.4 h. The bioavailability in series [5] was 48%. Also, the Vd in series [6] was found to be 0.73 L/kg.
As to `Cc1nc(-c2ccc(C(F)(F)F)cc2)sc1COc1ccc([C@H](CC(=O)O)c2cnco2)cc1`, the figures for the half-maximal effective concentration (EC50) in series [2] and in series [4] were 9 nM and 57 nM, respectively.
Consider `Cc1nc(-c2ccc(C(F)(F)F)cc2)sc1COc1ccc([C@H](CC(=O)O)c2ncco2)cc1`, for which, in [4], the EC50 turned out to be 69 nM.
In the case of `Cc1nc(-c2ccc(C(F)(F)F)cc2)sc1COc1ccc([C@H](CC(=O)O)c2nnnn2C)cc1`, the EC50 was determined as 3.8 nM in [2] and 41 nM in [4]. This compound came in with an MRT in series [3] of 0.74 h. Also, the bioavailability in [5] is 6.7%. In addition, the Vd in series [6] is 3.2 L/kg.
As for `Cc1nc(-c2ccc(C(F)(F)F)cc2)sc1COc1ccc([C@H](CC(=O)O)c2ccon2)cc1`, the concentration at 4 h in [7] is 2000 nM. Also, the Activity result in [8] was “Not Active”. For the same compound, the Vd in series [9] came to 0.35 L/kg; in series [17] it was 0.6 L/kg; in series [6], 0.68 L/kg. Also, the values for the half-life in [10], in series [16] and in [19] were 5.6 h, 14 h and 5.3 h, respectively. The results for the EC50 (with Islets of langerhans; in [2]; in series [4]) were 55 nM, 3.6 nM and 36 nM, respectively. In addition, the “inhibition (INH)” value in [11] and in series [13] was “Not Active” in each case. For the same compound, the bioavailability in [12] was found to be 65%; in [18], 100%; in series [5], 77%. In the series with Mus musculus [14], the inhibition entry is “Active”. Besides, the “Cp(f)” value with Plasma turned out to be 8 nM. The Kp at 3 h in series [15] is 0.02. Further, the inhibition in vivo at 10 mg/kg in the series on Mus musculus [20] amounted to 19%.
Consider `CC#C[C@@H](CC(=O)O)c1ccc(OCc2cccc(-c3ccc(Cl)cc3C)c2)cc1`, for which, in series [4], the EC50 came out at 36 nM.
Turning to `Cc1cc(Cl)ccc1-c1cccc(COc2ccc([C@H](CC(=O)O)c3ncnn3C)cc2)c1`, the results for the EC50 in series [2] and in [4] were 11 nM and 33 nM, respectively. The same compound returned an MRT in [3] of 2.5 h. The bioavailability in [5] worked out at 18%. Further, the Vd in series [6] worked out at 3.5 L/kg.
Take `Cc1nc(-c2ccc(C(F)(F)F)cc2)sc1COc1ccc([C@H](CC(=O)O)c2ncnn2C)cc1`: the MRT in [3] came out at 3.6 h. This compound returned a 50% effective concentration (EC50) in series [4] of 65 nM. The Vd in series [6] was found to be 1.5 L/kg.
Take `Cc1cc(Cl)ccc1-c1cccc(COc2ccc([C@H](CC(=O)O)c3nnnn3C)cc2)c1`: the EC50 in series [2] stood at 1.3 nM; in series [4] it was 12 nM. In series [3], this compound returned an MRT of 5.2 h. Moreover, the bioavailability in [5] is 53%. For the same compound, the Vd in series [6] is 14.3 L/kg.
Compound `CC#C[C@@H](CC(=O)O)c1ccc(OCc2cccc(-c3ccc(C(F)(F)F)cc3)c2)cc1` gave a mean residence time (MRT) in [3] of 10 h. In addition, the bioavailability in [5] worked out at 84%. Besides, the Vd in [6] was found to be 0.58 L/kg.
Take `Cc1nc(-c2ccc(C(F)(F)F)cc2)sc1COc1ccc([C@H](CC(=O)O)c2nccn2C)cc1`: the values for the 50% effective concentration (EC50) in series [2] and in series [4] were 16 nM and 73 nM, respectively. In addition, the MRT in [3] turned out to be 3.7 h. Also, the Vd in [6] was found to be 0.64 L/kg.

What is called clearance is a measure of how efficiently the substance is removed, as volume per time. A word on the EC50: it is the concentration that produces a half-maximal response. What is called MRT is the average time that molecules of a dose stay in the body. A word on the bioavailability: it is the share of a dose that reaches the circulation, judged against a reference dose that is usually intravenous. A word on the half-life: it is the time in which the quantity being followed falls by half. A word on the inhibition in vivo: it is the share of the control response that was lost under treatment.

The record behind these values is ChEMBL document CHEMBL3286293, “Optimization of GPR40 Agonists for Type 2 Diabetes” (ACS Med Chem Lett, 2014).
